target: T1, PI3Kδ (PI3Kd) (Homo sapiens, UniProt O00329); test: PI3K HTRF enzymatic inhibition assay (cell-free, Millipore kit), PI3Kd isoform; format: biochemical; details: recombinant PI3Kd 0.60 nM, PIP2 2 µM, ATP 20 µM, incubation 8 minutes
T1 construct: purchased Millipore
Protocol: Compounds were screened for their ability to inhibit PI3Kα (PI3Ka), PI3Kβ (PI3Kb), PI3Kδ (PI3Kd) and PI3Kγ (PI3Kg) using a cell-free based P13K HTRF™ assay (Millipore, ref. #33-017) All reagents to perform the reactions were prepared according to the manufacturer protocol. All PI3K enzymes were recombinant and were purchased at Millipore.
All four assays were performed according to the following procedure: • 1) Dilution curves of compounds were done in 100% DMSO and dispensed in a reservoir plate, typically from column 2 to 11. Column 1 and 12 were used for the negative controls (100% inhibition using a reference PI3K inhibitor for the four isoforms) and the positive controls (0% inhibition using dimethyl sulfoxide (DMSO) only). • 2) Mix of Phosphoinositide 3-kinase (PI3K) + Phosphatidylinositol 4,5-bisphosphate (PIP2) was diluted in buffer (supplied with the kit) and plated in a medium binding black 96-well plate (Greiner ref. #675076) PI3Ka was diluted at 0.25 nM with PIP2 at 2 µM; PI3Kb was diluted at 0.50 nM with PIP2 at 5 µM; PI3Kd was diluted at 0.60 nM with PIP2 at 2 µM and PI3Kg was diluted at 0.30 nM with PIP2 at 10 µM. These concentrations were final in the assay. • 3) A reservoir plate containing Adenosine TriPhosphate (ATP) diluted in the Millipore kit buffer was prepared for each isoform. The final concentration of ATP in the assay was 10 µM, 15 µM, 20 µM and 10 µM for PI3Ka, PI3Kb, PI3Kd and PI3Kg respectively. • 4) Reactions were started by addition to the PI3K+PIP2 plates of the ATP and compounds simultaneously. Incubation was done for 8 minutes (for all four isoforms) then the reaction was stopped by addition of the Stop solution. The Detection solution was added. These solutions were prepared previously according to the kit specifications. The plates were then incubated overnight at RT before reading the signal in an Envision (PerkinElmer), with excitation at 340 nm and emissions at 620 and 665 nm. • 5) Data obtained from the compound curves were normalized in respect to the negative and positive controls, and then fitted by a 4-parameter log curve in ActivityBase (IDBS) in order to determine their potency.

T1 sequence (O00329 whole entry, canonical isoform): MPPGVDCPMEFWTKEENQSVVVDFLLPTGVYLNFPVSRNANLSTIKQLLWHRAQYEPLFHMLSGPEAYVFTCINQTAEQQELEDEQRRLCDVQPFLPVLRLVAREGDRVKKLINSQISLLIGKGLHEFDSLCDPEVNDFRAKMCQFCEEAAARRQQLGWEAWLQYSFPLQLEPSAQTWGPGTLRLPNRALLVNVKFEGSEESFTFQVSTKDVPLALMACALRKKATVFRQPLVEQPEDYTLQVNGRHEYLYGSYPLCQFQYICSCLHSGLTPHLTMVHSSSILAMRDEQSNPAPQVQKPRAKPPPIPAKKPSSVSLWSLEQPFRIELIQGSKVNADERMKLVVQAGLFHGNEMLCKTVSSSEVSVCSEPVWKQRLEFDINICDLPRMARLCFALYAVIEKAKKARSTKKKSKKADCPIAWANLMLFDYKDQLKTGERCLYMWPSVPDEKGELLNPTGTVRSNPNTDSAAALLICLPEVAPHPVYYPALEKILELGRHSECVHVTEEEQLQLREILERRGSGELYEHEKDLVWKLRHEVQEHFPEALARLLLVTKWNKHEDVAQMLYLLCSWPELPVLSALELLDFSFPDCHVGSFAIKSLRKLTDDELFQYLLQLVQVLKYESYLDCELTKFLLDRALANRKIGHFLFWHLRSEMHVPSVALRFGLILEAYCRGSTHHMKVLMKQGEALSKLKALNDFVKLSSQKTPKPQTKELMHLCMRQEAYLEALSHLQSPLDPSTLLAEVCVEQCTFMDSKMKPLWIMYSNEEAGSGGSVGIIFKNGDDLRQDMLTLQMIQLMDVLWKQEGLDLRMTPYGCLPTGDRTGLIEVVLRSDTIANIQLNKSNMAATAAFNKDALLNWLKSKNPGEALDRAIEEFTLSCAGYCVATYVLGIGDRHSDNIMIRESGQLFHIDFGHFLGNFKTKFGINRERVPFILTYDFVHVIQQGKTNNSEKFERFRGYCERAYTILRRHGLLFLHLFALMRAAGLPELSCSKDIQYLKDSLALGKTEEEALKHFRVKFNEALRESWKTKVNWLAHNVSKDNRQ
T1 sequence (P27986 whole entry partner, canonical isoform): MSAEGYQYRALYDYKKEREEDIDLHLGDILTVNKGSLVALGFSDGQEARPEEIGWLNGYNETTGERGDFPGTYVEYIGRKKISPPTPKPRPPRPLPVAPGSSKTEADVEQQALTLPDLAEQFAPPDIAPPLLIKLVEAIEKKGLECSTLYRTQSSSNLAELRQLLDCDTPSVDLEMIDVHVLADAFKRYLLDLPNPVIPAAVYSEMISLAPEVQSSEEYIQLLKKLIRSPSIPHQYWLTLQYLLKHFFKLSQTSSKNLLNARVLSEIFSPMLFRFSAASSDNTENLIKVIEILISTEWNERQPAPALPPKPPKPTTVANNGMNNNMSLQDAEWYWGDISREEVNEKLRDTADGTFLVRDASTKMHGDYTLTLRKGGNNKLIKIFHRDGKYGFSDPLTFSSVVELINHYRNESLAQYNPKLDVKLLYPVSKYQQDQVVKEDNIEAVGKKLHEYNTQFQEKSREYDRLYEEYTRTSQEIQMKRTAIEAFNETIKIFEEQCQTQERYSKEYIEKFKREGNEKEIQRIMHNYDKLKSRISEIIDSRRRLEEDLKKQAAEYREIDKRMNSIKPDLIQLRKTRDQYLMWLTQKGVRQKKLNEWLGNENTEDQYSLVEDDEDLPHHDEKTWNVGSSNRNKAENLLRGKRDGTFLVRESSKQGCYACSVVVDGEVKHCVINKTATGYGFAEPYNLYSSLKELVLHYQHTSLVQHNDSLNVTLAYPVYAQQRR

Compared with `C[C@H](Nc1ncnc2[nH]cnc12)c1nc2cccnc2n1-c1cc(F)cc(F)c1` [Example 12, (S)-N-(1-(3-(3,5-Difluorophenyl)-3H-imidazo[4,5-b]pyridin-2-yl)ethyl)-9H-purin-6-amine], `COc1ccc2nc([C@H](C)Nc3ncnc4[nH]cnc34)n(-c3cc(F)cc(F)c3)c2n1` [Example 15, (S)-N-(1-(3-(3,5-Difluorophenyl)-5-methoxy-3H-imidazo[4,5-b]pyridin-2-yl)ethyl)-9H-purin-6-amine] is 17-fold lower in IC50: 0.188 µM for the first, 0.0109 µM for the second.

Compared with `C[C@H](Nc1nc(N)nc2[nH]cnc12)c1nc2cccnc2n1-c1ccccc1` [Example 9, (S)-N6-(1-(3-Phenyl-3H-imidazo[4,5-b]pyridin-2-yl)ethyl)-9H-purine-2,6-diamine], `C[C@H](Nc1ncnc2[nH]cnc12)c1nc2cccnc2n1-c1ccccc1Cl` [Example 39, N-{(1S)-1-[3-(2-Chlorophenyl)-3H-imidazo[4,5-b]pyridin-2-yl]ethyl}-9H-purin-6-amine] is 2.5-fold higher in IC50: 0.0859 µM for the first, 0.215 µM for the second.

First: CC[C@H](Nc1ncnc2[nH]cnc12)c1nc2ccc(OC)nc2n1-c1ccccc1 [Example 14, (S)-N-(1-(5-Methoxy-3-phenyl-3H-imidazo[4,5-b]pyridin-2-yl)propyl)-9H-purin-6-amine]
Second: COc1ccc2nc([C@H](C)Nc3ncnc4[nH]cnc34)n(-c3ccccc3)c2n1 [Example 10, (S)-N-(1-(5-Methoxy-3-phenyl-3H-imidazo[4,5-b]pyridin-2-yl)ethyl)-9H-purin-6-amine]
The IC50 of the first is 2.2-fold lower: 0.0144 µM for the first, 0.0316 µM for the second. The first is the more potent here.

Compared with `C[C@H](Nc1ncnc(N)c1C#N)c1nc2cccnc2n1-c1ccccc1` [Example 19, (S)-4-Amino-6-(1-(3-phenyl-3H-imidazo[4,5-b]pyridin-2-yl)ethylamino)pyrimidine-5-carbonitrile], `Cc1ccc2nc([C@H](C)Nc3ncnc(N)c3C#N)n(-c3ccccc3)c2n1` [Example 25, (S)-4-Amino-6-(1-(5-methyl-3-phenyl-3H-imidazo[4,5-b]pyridin-2-yl)ethylamino)pyrimidine-5-carbonitrile] is 2.5-fold lower in IC50: 0.132 µM for the first, 0.0521 µM for the second.

First: C[C@H](Nc1ncnc2[nH]cnc12)c1nc2ncccc2n1-c1ccccc1 [Example 43, (S)-N-(1-(1-Phenyl-1H-imidazo[4,5-b]pyridin-2-yl)ethyl)-9H-purin-6-amine]
Second: C[C@H](Nc1ncnc2[nH]cnc12)c1nc2cc(F)cnc2n1-c1ccccc1 [Example 37, N-[(1S)-1-(6-Fluoro-3-phenyl-3H-imidazo[4,5-b]pyridin-2-yl)ethyl]-9H-purin-6-amine]
The IC50 of the first is 11-fold higher: 1.8 µM for the first, 0.165 µM for the second.

First: COc1ccc2nc([C@H](C)Nc3ncnc(N)c3C#N)n(-c3ccccc3)c2n1 [Example 21, (S)-4-Amino-6-(1-(5-methoxy-3-phenyl-3H-imidazo[4,5-b]pyridin-2-yl)ethylamino)pyrimidine-5-carbonitrile]
Second: Cc1ccc2nc([C@H](C)Nc3ccnc4ccnn34)n(-c3ccccc3)c2n1 [Example 26, (S)-N-(1-(5-Methyl-3-phenyl-3H-imidazo[4,5-b]pyridin-2-yl)ethyl)pyrazolo[1,5-a]pyrimidin-7-amine]
The IC50 of the first is 31-fold lower: 0.0222 µM for the first, 0.693 µM for the second.

Reference: EP2518071A1, “Imidazopyridine derivatives as PI3K inhibitors” (Almirall, S.A., priority 2011, dated 2012)
